Test results as given in publication PMC6327998, “Synthesis and biological evaluation of thiazole derivatives as LbSOD inhibitors” (Journal of Enzyme Inhibition and Medicinal Chemistry, 2018).

Columns and labels:
[1] = molecular target: T1, LbSOD (Leishmania braziliensis iron superoxide dismutase, FeSOD); experiment: Kd from concentration-response (FITC-labeled protein fluorescence / thermal shift); assay type: binding
T1 construct: recombinant from pETM11-LbSOD, 6xHis-tag removed by TEV protease (23 kDa)

[2] = molecular target: T1, LbSOD (Leishmania braziliensis iron superoxide dismutase, FeSOD); experiment: Kd from concentration-response (FITC-labeled protein fluorescence / thermal shift); binding confirmed by ITC

Row | Structure (SMILES) | Kd [1] | Kd [2]
1 | COc1cccc(C=Nc2nc(-c3ccc(Br)cc3)cs2)c1 [Ju-514, N-(3-methoxybenzylidene)-4–(4-bromophenyl)thiazol-2-imine] | 6.1 ± 0.8 mM | 
2 | O=[N+]([O-])c1ccc(-c2csc(N=Cc3ccc(Br)c(Br)c3)n2)cc1 [Ju-480, N-(3,4-dibromobenzylidene)-4–(4-nitrophenyl)thiazol-2-imine] |  | 0.0048 ± 0.0125 mM
